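Growth conditions: 96-well plates. Treatment: test compound, 48 hours, 5 concentrations. Analysis: linear interpolation between bracketing concentrations; unreached endpoints set to highest concentration. TGI: concentration producing complete growth inhibition.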
Legend:
Experiment in all cases: growth of human tumour cells (NCI), 48 h
SW-620 colon = system: SW-620 colon
DU-145 prostate = system: DU-145 prostate
SNB-75 CNS = system: SNB-75 CNS
SF-295 CNS = system: SF-295 CNS
MDA-N = system: MDA-N
U251 CNS = system: U251 CNS
CCRF-CEM leukemia = system: CCRF-CEM leukemia
HCT-116 colon = system: HCT-116 colon
SN12C renal = system: SN12C renal
NCI-H522 lung = system: NCI-H522 lung
K-562 leukemia = system: K-562 leukemia
CAKI-1 renal = system: CAKI-1 renal
NCI-H460 lung = system: NCI-H460 lung
A549 NSCLC = system: A549 NSCLC
HS 578T breast = system: HS 578T breast
RXF 393 renal = system: RXF 393 renal
UO-31 renal = system: UO-31 renal
UACC-62 melanoma = system: UACC-62 melanoma
KM12 colon = system: KM12 colon
SK-MEL-28 melanoma = system: SK-MEL-28 melanoma
SNB-19 CNS = system: SNB-19 CNS
MALME-3M melanoma = system: MALME-3M melanoma
OVCAR-8 ovarian = system: OVCAR-8 ovarian
UACC-257 melanoma = system: UACC-257 melanoma
LOX IMVI melanoma = system: LOX IMVI melanoma
T-47D breast = system: T-47D breast
M14 melanoma = system: M14 melanoma
NCI/ADR-RES ovarian = system: NCI/ADR-RES ovarian
SK-OV-3 ovarian = system: SK-OV-3 ovarian
HL-60(TB) leukemia = system: HL-60(TB) leukemia
OVCAR-5 ovarian = system: OVCAR-5 ovarian
HOP-92 NSCLC = system: HOP-92 NSCLC
MOLT-4 leukemia = system: MOLT-4 leukemia
SF-268 CNS = system: SF-268 CNS
SF-539 CNS = system: SF-539 CNS
HT29 colon = system: HT29 colon
MCF7 breast = system: MCF7 breast
COLO 205 colon = system: COLO 205 colon
SK-MEL-5 melanoma = system: SK-MEL-5 melanoma
786-0 renal = system: 786-0 renal
ACHN renal = system: ACHN renal
SR leukemia = system: SR leukemia
NCI-H226 lung = system: NCI-H226 lung
HCC-2998 colon = system: HCC-2998 colon
OVCAR-4 ovarian = system: OVCAR-4 ovarian
IGROV1 ovarian = system: IGROV1 ovarian
BT-549 breast = system: BT-549 breast
SK-MEL-2 melanoma = system: SK-MEL-2 melanoma
HOP-62 NSCLC = system: HOP-62 NSCLC
NCI-H23 lung = system: NCI-H23 lung
EKVX NSCLC = system: EKVX NSCLC
PC-3 prostate = system: PC-3 prostate
MDA-MB-231 breast = system: MDA-MB-231 breast
RPMI-8226 leukemia = system: RPMI-8226 leukemia
A498 renal = system: A498 renal
HCT-15 colon = system: HCT-15 colon
MDA-MB-435 = system: MDA-MB-435
OVCAR-3 ovarian = system: OVCAR-3 ovarian
TK-10 renal = system: TK-10 renal

O=C(NNc1ccccc1)c1ccc(Cl)c(Cl)c1
TGI (SW-620 colon): > 100 µM | TGI (DU-145 prostate): > 100 µM | TGI (SNB-75 CNS): > 67.8 µM | TGI (SF-295 CNS): > 86.5 µM | TGI (MDA-N): > 100 µM | TGI (U251 CNS): > 100 µM | TGI (CCRF-CEM leukemia): > 100 µM | TGI (HCT-116 colon): > 100 µM | TGI (SN12C renal): > 100 µM | TGI (NCI-H522 lung): 23 µM | TGI (K-562 leukemia): > 100 µM | TGI (CAKI-1 renal): > 59.5 µM | TGI (NCI-H460 lung): > 100 µM | TGI (A549 NSCLC): > 100 µM | TGI (HS 578T breast): > 100 µM | TGI (RXF 393 renal): > 84 µM | TGI (UO-31 renal): > 100 µM | TGI (UACC-62 melanoma): > 100 µM | TGI (KM12 colon): > 75.9 µM | TGI (SK-MEL-28 melanoma): > 100 µM | TGI (SNB-19 CNS): > 100 µM | TGI (MALME-3M melanoma): > 92.5 µM | TGI (OVCAR-8 ovarian): > 100 µM | TGI (UACC-257 melanoma): 13.9 µM | TGI (LOX IMVI melanoma): > 100 µM | TGI (T-47D breast): > 100 µM | TGI (M14 melanoma): > 100 µM | TGI (NCI/ADR-RES ovarian): > 100 µM | TGI (SK-OV-3 ovarian): > 80.1 µM | TGI (HL-60(TB) leukemia): 70.4 µM | TGI (OVCAR-5 ovarian): > 100 µM | TGI (HOP-92 NSCLC): > 100 µM | TGI (MOLT-4 leukemia): > 100 µM | TGI (SF-268 CNS): > 100 µM | TGI (SF-539 CNS): 0.133 µM | TGI (HT29 colon): > 100 µM | TGI (MCF7 breast): > 100 µM | TGI (COLO 205 colon): 0.414 µM | TGI (SK-MEL-5 melanoma): 41.6 µM | TGI (786-0 renal): > 100 µM | TGI (ACHN renal): > 100 µM | TGI (SR leukemia): > 100 µM | TGI (NCI-H226 lung): > 100 µM | TGI (HCC-2998 colon): > 40.9 µM | TGI (OVCAR-4 ovarian): > 100 µM | TGI (IGROV1 ovarian): > 60.7 µM | TGI (BT-549 breast): > 66.8 µM | TGI (SK-MEL-2 melanoma): 36.2 µM | TGI (HOP-62 NSCLC): > 100 µM | TGI (NCI-H23 lung): > 100 µM | TGI (EKVX NSCLC): 99.4 µM | TGI (PC-3 prostate): > 100 µM | TGI (MDA-MB-231 breast): > 100 µM | TGI (RPMI-8226 leukemia): > 54.4 µM | TGI (A498 renal): 59.7 µM | TGI (HCT-15 colon): > 100 µM | TGI (MDA-MB-435): > 100 µM | TGI (OVCAR-3 ovarian): > 94 µM | TGI (TK-10 renal): > 100 µM

O=[N+]([O-])C(C(Cl)=C(Cl)Cl)=C(n1nnc2ccccc21)n1nnc2ccccc21
TGI (SW-620 colon): 16.6 µM | TGI (DU-145 prostate): > 100 µM | TGI (SNB-75 CNS): > 58.1 µM | TGI (SF-295 CNS): > 67.9 µM | TGI (MDA-N): 61.2 µM | TGI (U251 CNS): 62.8 µM | TGI (CCRF-CEM leukemia): 43.9 µM | TGI (HCT-116 colon): 50.2 µM | TGI (SN12C renal): 56.7 µM | TGI (NCI-H522 lung): 38.6 µM | TGI (K-562 leukemia): 30.6 µM | TGI (CAKI-1 renal): > 54.1 µM | TGI (NCI-H460 lung): > 68.8 µM | TGI (A549 NSCLC): > 72.4 µM | TGI (HS 578T breast): 85.6 µM | TGI (RXF 393 renal): 50 µM | TGI (UO-31 renal): 52.6 µM | TGI (UACC-62 melanoma): > 58.2 µM | TGI (KM12 colon): > 70.1 µM | TGI (SK-MEL-28 melanoma): 64.9 µM | TGI (SNB-19 CNS): > 100 µM | TGI (MALME-3M melanoma): 49 µM | TGI (OVCAR-8 ovarian): 48.8 µM | TGI (UACC-257 melanoma): > 68.1 µM | TGI (LOX IMVI melanoma): > 66.3 µM | TGI (T-47D breast): > 80.6 µM | TGI (M14 melanoma): 50.8 µM | TGI (NCI/ADR-RES ovarian): 55.9 µM | TGI (SK-OV-3 ovarian): > 58 µM | TGI (HL-60(TB) leukemia): 13.5 µM | TGI (OVCAR-5 ovarian): > 66.3 µM | TGI (HOP-92 NSCLC): > 81.6 µM | TGI (MOLT-4 leukemia): 26.2 µM | TGI (SF-268 CNS): 70 µM | TGI (SF-539 CNS): 53.3 µM | TGI (HT29 colon): 59.6 µM | TGI (MCF7 breast): > 55.4 µM | TGI (COLO 205 colon): 51.9 µM | TGI (SK-MEL-5 melanoma): > 67.8 µM | TGI (786-0 renal): 20.4 µM | TGI (ACHN renal): > 65.8 µM | TGI (SR leukemia): 17.4 µM | TGI (NCI-H226 lung): > 73.9 µM | TGI (HCC-2998 colon): > 67.1 µM | TGI (OVCAR-4 ovarian): 66.3 µM | TGI (IGROV1 ovarian): 60.4 µM | TGI (BT-549 breast): 99.6 µM | TGI (SK-MEL-2 melanoma): > 65.3 µM | TGI (HOP-62 NSCLC): > 68.4 µM | TGI (NCI-H23 lung): > 75.5 µM | TGI (EKVX NSCLC): > 74.6 µM | TGI (PC-3 prostate): > 67.3 µM | TGI (MDA-MB-231 breast): 38.5 µM | TGI (RPMI-8226 leukemia): 56.4 µM | TGI (A498 renal): > 90 µM | TGI (HCT-15 colon): 61.7 µM | TGI (MDA-MB-435): 58.4 µM | TGI (OVCAR-3 ovarian): 62.4 µM | TGI (TK-10 renal): > 63.7 µM

— PubChem BioAssay (NCI)
